This is an account of results in patent publication EP4467141A1, “PYRAZOLO-QUINOLINES AS SELECTIVE INHIBITORS OF GENOTOXIC STRESS-INDUCED IKK/NF- KB PATHWAYS FOR CANCER THERAPY” (Max-Delbrück-Centrum für Molekulare Medizin in der …, priority 2023, dated 2024).

What all share (experiment): Kinase panel study
What all share (type): biochemical

One assay deals with T1, ALK (Homo sapiens, UniProt Q9UM73).
T1 construct: purchased Thermo Fisher Scientific
As for the experimental part: (§1) The Kinase panel study was entirely provided by Thermo Fisher Scientific using the two lead compounds MW01 and MW05 as well as their derivatives (MW01-E06, MW01-E10, MW01-E14, MW01-E18, MW05-E2, MW05-E3, MW05-E9 and MW05-E10. The experiment was performed using the ZLyte or Adapta protocol according to manufacturer standard operating procedures.
(§2) Based on their similar effects in our screen and molecular analysis, MW01 and MW05 were used in comparative target deconvolution studies seeking common targets despite their distinct structures. To eliminate previously identified kinases regulating NF-κB activity, such as IKK, as possible targets of MW01 and MW05, an in vitro kinase inhibition assay was performed. […] We next investigated if any of the shared kinase targets of MW01 and MW05 play a role in genotoxic stress-induced NF-κB activity and established several criteria to narrow down pathway-relevant targets. Considering the similar NF-κB inhibition phenotypes of both compounds, we hypothesized first that the target should be shared by both lead compounds. Second, based on the CaCo2 recovery values and experimental treatment concentration of 10 µM), the putative target kinase should have a low IC50 of, at most, 2000 nM for both lead compounds in the in vitro kinase panel (Fig. 2A). Based on these criteria alone, we arrived at a relatively short list of potential targets for further analysis, leaving only PIK3CG, PIK3C2G, and CLK2 (Fig. 2B). IC50 values for PIK3C2G by both lead compounds agreed best with these criteria, but RNA expression analysis indicates high tissue specificity as well as lack of expression of this kinase in our U2-OS model cell line, which we then eliminated from further analysis (Uhlén et al., 2015). […] Table 6: Percentage of inhibition of the indicated kinases by MW01 or MW05 at either 10 µM or 1 µM. n.d. = not determined.

A further assay concerns the target T2, DYRK1A (Homo sapiens, UniProt Q13627).
T2 construct: purchased Thermo Fisher Scientific
On the procedure: as §1, §2

For another assay, the target named is T3, FRAP1 (mTOR) (Homo sapiens, UniProt P42345).
T3 construct: purchased Thermo Fisher Scientific
As for the experimental part: as §1, §2

For another assay, the target named is T4, IKBKB (IKK beta) (Homo sapiens, UniProt O14920).
T4 construct: purchased Thermo Fisher Scientific
T4 sequence (O14920 1-756): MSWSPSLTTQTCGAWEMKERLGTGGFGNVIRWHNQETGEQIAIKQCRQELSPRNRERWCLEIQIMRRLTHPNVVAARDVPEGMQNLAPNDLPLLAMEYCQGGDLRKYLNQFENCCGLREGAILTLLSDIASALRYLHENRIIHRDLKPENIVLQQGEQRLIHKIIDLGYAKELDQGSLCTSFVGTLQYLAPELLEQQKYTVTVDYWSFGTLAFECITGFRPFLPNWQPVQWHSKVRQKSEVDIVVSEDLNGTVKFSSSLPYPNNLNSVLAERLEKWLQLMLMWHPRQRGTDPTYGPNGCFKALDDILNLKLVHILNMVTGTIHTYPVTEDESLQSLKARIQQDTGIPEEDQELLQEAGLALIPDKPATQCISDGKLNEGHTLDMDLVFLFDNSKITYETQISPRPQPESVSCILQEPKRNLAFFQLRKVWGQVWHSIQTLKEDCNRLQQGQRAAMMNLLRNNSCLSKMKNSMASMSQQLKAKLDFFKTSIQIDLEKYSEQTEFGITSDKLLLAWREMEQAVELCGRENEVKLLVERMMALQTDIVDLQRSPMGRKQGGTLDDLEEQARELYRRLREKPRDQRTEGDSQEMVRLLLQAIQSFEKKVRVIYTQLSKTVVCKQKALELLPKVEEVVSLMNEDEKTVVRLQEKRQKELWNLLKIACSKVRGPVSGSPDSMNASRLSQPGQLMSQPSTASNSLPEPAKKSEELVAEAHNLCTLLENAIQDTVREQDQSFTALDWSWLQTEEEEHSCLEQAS
As for the experimental part: as §1, §2

The target in a further assay is T5, IRAK4 (Homo sapiens, UniProt Q9NWZ3).
T5 construct: purchased Thermo Fisher Scientific
T5 sequence (Q9NWZ3 1-460): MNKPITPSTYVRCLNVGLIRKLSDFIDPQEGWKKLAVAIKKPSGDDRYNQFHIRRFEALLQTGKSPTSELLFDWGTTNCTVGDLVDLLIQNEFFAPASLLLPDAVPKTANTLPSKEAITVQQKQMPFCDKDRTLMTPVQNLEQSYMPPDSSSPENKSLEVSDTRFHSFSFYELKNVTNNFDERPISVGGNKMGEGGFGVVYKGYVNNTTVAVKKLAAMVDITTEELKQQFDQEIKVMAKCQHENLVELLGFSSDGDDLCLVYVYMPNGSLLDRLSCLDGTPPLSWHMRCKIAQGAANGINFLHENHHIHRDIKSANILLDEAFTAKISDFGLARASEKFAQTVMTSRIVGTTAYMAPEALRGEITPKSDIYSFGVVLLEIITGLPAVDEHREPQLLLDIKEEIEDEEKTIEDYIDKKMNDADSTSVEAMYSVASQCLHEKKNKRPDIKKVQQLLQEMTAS
On the procedure: as §1, §2

The next assay has as its target T6, PI4K2A (PI4K2 alpha) (Homo sapiens, UniProt Q9BTU6).
T6 construct: purchased Thermo Fisher Scientific
On the procedure:
as §1, §2

A further assay addresses T7, PI4K2B (PI4K2 beta) (Homo sapiens, UniProt Q8TCG2).
T7 construct: purchased Thermo Fisher Scientific
On the procedure:
as §1, §2

Assay [1] has as its target T8, PIK3CA/PIK3R1 (p11 0 alpha/p85 alpha) (Homo sapiens, UniProt P42336).
T8 construct: purchased Thermo Fisher Scientific
On the procedure:
as §1, §2

In assay [2] the target is T9, PIK3CA/PIK3R3 (p11 0 alpha/p55 gamma) (Homo sapiens, UniProt P42336).
T9 construct: purchased Thermo Fisher Scientific
On the procedure:
as §1, §2

The target in assay [3] is T10, PIK3CB/PIK3R1 (p110 beta/p85 alpha) (Homo sapiens, UniProt P42338).
T10 construct: purchased Thermo Fisher Scientific
As for the experimental part: as §1, §2

Another assay concerns the target T11, PIK3CG (p11 0 gamma) (Homo sapiens, UniProt P48736).
T11 construct: purchased Thermo Fisher Scientific
On the procedure: as §1, §2

Another assay addresses T12, PIP5K1A (Homo sapiens, UniProt Q99755).
T12 construct: purchased Thermo Fisher Scientific
As for the experimental part:
as §1, §2

The mark [4] stands for this setting: 1000nM, read-out: Percentage of inhibition.
Where [5] appears, read: 10000nM, read-out: Percentage of inhibition.
[6] abbreviates: ALK, compound at 10µM, read-out: % of Inhibition.
Where [7] appears, read: DYRK1A, compound at 10µM, read-out: % of Inhibition.
The mark [8] stands for this setting: FRAP1 (mTOR), compound at 10µM, read-out: % of Inhibition.
[9] abbreviates: IKBKB (IKK beta), compound at 10µM, read-out: % of Inhibition.
The mark [10] stands for this setting: IRAK4, compound at 10µM, read-out: % of Inhibition.
Where [11] appears, read: PI4K2A (PI4K2 alpha), compound at 10µM, read-out: % of Inhibition.
Where [12] appears, read: PI4K2B (PI4K2 beta), compound at 10µM, read-out: % of Inhibition.
Setting [13] is: PIK3CA/PIK3R1, compound at 10µM, read-out: % of Inhibition.
[14] abbreviates: PIK3CA/PIK3R3, compound at 10µM, read-out: % of Inhibition.
[15] abbreviates: PIK3CB/PIK3R1, compound at 10µM, read-out: % of Inhibition.
Setting [16] is: PIK3CG, compound at 10µM, read-out: % of Inhibition.
Where [17] appears, read: PIP5K1A, compound at 10µM, read-out: % of Inhibition.

Like-named read-outs stand apart in the source and are kept apart here. A value given as a limit tells only on which side of the number the result lay.

T12 sequence (Q99755 whole entry): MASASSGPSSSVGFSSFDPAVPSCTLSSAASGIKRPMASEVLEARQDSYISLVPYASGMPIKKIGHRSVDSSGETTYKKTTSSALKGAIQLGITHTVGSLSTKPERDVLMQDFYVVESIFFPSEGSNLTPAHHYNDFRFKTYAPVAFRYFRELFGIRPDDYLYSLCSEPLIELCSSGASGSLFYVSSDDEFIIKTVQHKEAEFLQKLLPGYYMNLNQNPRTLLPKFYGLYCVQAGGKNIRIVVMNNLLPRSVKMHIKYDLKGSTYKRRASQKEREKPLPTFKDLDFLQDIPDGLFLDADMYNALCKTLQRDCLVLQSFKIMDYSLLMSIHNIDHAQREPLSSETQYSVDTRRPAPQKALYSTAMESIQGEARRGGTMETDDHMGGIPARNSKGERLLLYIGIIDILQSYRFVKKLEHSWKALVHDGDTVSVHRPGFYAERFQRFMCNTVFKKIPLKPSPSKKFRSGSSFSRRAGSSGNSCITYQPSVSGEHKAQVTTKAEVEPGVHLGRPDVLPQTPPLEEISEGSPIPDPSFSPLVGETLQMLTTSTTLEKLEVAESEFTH
T6 sequence (Q9BTU6 whole entry): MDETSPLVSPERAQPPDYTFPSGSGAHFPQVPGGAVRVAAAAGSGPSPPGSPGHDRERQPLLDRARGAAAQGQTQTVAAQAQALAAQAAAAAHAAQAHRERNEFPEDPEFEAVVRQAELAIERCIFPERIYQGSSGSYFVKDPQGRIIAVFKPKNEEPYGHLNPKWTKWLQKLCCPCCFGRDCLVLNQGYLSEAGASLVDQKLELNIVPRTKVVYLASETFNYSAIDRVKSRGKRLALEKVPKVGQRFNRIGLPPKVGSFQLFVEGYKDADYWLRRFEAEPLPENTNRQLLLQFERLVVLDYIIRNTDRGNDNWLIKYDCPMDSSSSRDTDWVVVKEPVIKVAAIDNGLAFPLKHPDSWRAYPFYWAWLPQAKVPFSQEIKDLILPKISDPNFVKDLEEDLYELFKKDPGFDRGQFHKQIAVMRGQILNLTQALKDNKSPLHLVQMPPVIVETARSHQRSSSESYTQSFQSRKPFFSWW
T10 sequence (P42338 whole entry): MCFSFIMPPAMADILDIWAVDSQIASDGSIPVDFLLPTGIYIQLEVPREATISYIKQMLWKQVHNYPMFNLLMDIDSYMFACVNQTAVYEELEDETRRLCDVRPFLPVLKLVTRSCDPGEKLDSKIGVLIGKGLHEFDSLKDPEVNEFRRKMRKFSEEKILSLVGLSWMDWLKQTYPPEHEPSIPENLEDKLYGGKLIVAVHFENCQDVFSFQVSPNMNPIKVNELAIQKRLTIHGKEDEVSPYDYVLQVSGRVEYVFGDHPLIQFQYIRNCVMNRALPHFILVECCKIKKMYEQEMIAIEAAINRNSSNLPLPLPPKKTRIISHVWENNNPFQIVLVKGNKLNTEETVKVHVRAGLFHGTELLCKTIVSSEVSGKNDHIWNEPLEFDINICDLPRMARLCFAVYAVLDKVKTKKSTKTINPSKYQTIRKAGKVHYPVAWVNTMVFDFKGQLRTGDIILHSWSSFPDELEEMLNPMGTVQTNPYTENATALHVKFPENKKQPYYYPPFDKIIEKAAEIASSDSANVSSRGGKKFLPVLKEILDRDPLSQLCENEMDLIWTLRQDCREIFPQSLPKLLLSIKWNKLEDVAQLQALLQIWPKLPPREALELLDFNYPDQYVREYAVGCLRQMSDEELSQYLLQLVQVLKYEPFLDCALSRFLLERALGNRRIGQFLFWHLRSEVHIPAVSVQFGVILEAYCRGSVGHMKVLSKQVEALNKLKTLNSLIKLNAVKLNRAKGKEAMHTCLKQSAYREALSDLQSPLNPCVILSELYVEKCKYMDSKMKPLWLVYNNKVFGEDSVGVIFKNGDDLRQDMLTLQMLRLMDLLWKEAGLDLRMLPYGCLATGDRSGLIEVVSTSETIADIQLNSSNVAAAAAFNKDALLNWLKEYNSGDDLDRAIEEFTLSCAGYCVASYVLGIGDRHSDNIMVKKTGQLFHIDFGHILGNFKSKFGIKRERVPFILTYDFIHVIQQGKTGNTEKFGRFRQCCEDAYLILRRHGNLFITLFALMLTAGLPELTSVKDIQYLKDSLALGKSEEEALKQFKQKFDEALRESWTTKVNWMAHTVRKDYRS
T10 sequence (P27986 whole entry partner): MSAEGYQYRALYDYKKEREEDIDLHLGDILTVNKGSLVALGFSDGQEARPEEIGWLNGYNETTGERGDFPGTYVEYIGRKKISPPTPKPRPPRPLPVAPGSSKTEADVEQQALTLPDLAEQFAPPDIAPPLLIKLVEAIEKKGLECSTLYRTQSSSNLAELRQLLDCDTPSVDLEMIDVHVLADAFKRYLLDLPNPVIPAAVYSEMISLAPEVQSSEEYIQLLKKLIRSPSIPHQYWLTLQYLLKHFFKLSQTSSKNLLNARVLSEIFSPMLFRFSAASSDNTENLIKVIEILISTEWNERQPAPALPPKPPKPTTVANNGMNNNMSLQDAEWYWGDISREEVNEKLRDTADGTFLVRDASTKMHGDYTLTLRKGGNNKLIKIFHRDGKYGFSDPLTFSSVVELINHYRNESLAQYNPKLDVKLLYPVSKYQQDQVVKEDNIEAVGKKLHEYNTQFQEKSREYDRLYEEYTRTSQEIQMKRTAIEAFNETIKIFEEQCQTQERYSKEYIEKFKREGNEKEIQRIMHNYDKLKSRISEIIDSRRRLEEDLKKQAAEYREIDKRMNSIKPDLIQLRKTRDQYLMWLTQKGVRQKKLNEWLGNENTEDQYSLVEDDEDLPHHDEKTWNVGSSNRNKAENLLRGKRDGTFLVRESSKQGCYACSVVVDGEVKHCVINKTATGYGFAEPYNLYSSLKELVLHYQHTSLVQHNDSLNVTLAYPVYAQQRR
T7 sequence (Q8TCG2 whole entry): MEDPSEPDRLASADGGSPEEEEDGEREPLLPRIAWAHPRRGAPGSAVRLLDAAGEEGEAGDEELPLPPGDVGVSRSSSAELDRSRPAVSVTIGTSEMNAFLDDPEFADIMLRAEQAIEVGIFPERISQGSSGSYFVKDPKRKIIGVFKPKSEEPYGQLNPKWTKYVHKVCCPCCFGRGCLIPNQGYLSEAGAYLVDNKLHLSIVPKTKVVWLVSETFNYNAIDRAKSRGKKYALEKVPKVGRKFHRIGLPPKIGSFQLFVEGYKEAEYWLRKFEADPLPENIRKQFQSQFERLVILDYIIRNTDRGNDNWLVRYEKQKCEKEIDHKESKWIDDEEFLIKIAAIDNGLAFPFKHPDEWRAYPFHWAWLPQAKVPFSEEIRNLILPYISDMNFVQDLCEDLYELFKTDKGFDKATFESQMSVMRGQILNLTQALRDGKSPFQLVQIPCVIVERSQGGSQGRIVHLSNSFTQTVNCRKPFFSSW
T9 sequence (P42336 whole entry): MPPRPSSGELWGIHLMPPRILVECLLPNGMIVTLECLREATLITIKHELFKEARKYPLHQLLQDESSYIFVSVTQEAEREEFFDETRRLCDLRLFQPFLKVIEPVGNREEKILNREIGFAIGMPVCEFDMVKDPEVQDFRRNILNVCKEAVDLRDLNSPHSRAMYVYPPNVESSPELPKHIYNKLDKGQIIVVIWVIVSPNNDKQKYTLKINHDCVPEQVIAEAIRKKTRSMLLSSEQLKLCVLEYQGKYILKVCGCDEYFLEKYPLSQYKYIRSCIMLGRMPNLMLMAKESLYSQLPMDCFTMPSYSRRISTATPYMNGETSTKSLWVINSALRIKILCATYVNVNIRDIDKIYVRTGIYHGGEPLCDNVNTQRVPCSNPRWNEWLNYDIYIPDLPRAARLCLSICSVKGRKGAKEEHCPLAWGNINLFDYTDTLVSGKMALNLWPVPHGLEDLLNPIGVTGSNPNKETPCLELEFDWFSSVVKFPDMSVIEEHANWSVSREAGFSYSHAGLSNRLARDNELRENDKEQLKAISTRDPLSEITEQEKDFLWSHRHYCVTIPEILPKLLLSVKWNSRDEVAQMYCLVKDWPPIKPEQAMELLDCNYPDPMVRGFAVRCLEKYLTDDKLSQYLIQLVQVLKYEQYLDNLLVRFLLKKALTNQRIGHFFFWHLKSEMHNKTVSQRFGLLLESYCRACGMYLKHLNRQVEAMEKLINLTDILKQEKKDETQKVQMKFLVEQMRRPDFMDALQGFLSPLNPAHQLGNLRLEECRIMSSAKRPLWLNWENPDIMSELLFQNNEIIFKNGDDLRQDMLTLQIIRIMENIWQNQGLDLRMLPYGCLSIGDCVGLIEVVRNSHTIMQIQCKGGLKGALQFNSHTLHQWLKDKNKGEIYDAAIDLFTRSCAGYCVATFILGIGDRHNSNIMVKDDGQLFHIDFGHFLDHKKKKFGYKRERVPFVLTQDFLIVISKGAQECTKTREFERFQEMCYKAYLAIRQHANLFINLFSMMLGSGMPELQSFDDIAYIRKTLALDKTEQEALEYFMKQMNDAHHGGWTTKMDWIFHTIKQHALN
T8 sequence (P42336 whole entry): as the sequence (P42336 whole entry) above
T8 sequence (P27986 whole entry partner): as the sequence (P27986 whole entry partner) above

Regarding `COc1ccc2c(c1OC)c(=O)n1c3ccc(O)cc3c3ccnc2c31` [MW01, 5-Hydroxy-10,11-dimethoxy-9H-benzo[c]indolo[3,2,1-ij][1,5]naphthyridin-9-one], the inhibition at 1 µM on ALK (setting [4]) is 18%; on DYRK1A (setting [4]), 80%; on FRAP1 (mTOR) (setting [4]), 31%; at IKBKB (IKK beta) (setting [4]), 4%; at IRAK4 (setting [4]), 19%; on PI4K2A (PI4K2 alpha) (setting [4]), 7%. Besides, the inhibition at 1 µM at PI4K2B (PI4K2 beta) (setting [4]) was determined as 3%; in assay [1] (setting [4]) it was 81%; in [2] (setting [4]), 92%; in assay [3] (setting [4]), 30%; on PIK3CG (p11 0 gamma) (setting [4]), 81%; at PIP5K1A (setting [4]), 25%. Further, the inhibition at 10 µM at ALK (setting [5]) was 40%; at DYRK1A (setting [5]), 90%; at FRAP1 (mTOR) (setting [5]) it was 80%; on IKBKB (IKK beta) (setting [5]), 12%; at IRAK4 (setting [5]) it was 50%; on PI4K2A (PI4K2 alpha) (setting [5]), 25%. Also, the inhibition at 10 µM on PI4K2B (PI4K2 beta) (setting [5]) was 20%; in [1] (setting [5]), 86%; in assay [2] (setting [5]), 96%; in assay [3] (setting [5]), 67%; at PIK3CG (p11 0 gamma) (setting [5]), 88%; on PIP5K1A (setting [5]), 43%. Moreover, the IC50 against FRAP1 (mTOR) (in vitro kinase panel, sub-2000 nM criterion) was at least 2 µM; at PIK3CG (p11 0 gamma) (in vitro kinase panel, criterion of at most 2000 nM), at most 2 µM.

For the molecule `COc1ccc2c(c1)c1ccnc3c4nc(OC)ccc4c(=O)n2c13` [MW01-E6, 5,15-dimethoxy-1,11,14-triazapentacyclo[10.7.1,0^2,7.0^8,^20.0^13,^18]icosa-2(7),3,5,8(20),9,11,13(18),14,16-nonaen-19-one], the inhibition at 10 µM on ALK (setting [6]) was 19%; at DYRK1A (setting [7]), 14%; at FRAP1 (mTOR) (setting [8]) it was 12%; at IKBKB (IKK beta) (setting [9]), 10%; at IRAK4 (setting [10]), -9%; at PI4K2A (PI4K2 alpha) (setting [11]), 22%. In addition, the inhibition at 10 µM on PI4K2B (PI4K2 beta) (setting [12]) was 11%; in assay [1] (setting [13]) it was 38%; in [2] (setting [14]), 10%; in assay [3] (setting [15]) it was 13%; at PIK3CG (p11 0 gamma) (setting [16]) it was -1%; at PIP5K1A (setting [17]) it was 20%.

As for `O=c1c2cc(O)ccc2c2nccc3c4cc(O)ccc4n1c32` [MW01-E10, 5,16-dihydroxy-1,11-diazapentacyclo[10.7.1.0^2,^7.0^8,^20.0^13,^18]icosa-2(7),3,5,8(20),9,11,13(18),14,16-nonaen-19-one], the inhibition at 10 µM at ALK (setting [6]) is 75%; at DYRK1A (setting [7]), 56%; on FRAP1 (mTOR) (setting [8]) it was 42%; at IKBKB (IKK beta) (setting [9]), 31%; on IRAK4 (setting [10]), -186%; at PI4K2A (PI4K2 alpha) (setting [11]), 13%. The inhibition at 10 µM on PI4K2B (PI4K2 beta) (setting [12]) was 22%; in assay [1] (setting [13]) it was 90%; in [2] (setting [14]) it was 90%; in assay [3] (setting [15]), 34%; on PIK3CG (p11 0 gamma) (setting [16]) it was 93%; on PIP5K1A (setting [17]), 5%.

With `COc1ccc2c(c1)c1ccnc3c4ccnc(OC)c4c(=O)n2c13` [MW01-E14, 5,17-dimethoxy-1,11,16-triazapentacyclo[10.7.1.0^2,^7.0^8,^20.0^13,^18]icosa-2(7),3,5,8(20),9,11,13(18),14,16-nonaen-19-one], the inhibition at 10 µM was 15% at ALK (setting [6]); 12% on DYRK1A (setting [7]); 26% on FRAP1 (mTOR) (setting [8]); 16% on IKBKB (IKK beta) (setting [9]); -15% at IRAK4 (setting [10]); 35% at PI4K2A (PI4K2 alpha) (setting [11]). The inhibition at 10 µM on PI4K2B (PI4K2 beta) (setting [12]) was 21%; in assay [1] (setting [13]) it was 80%; in [2] (setting [14]) it was 59%; in [3] (setting [15]) it was 26%; at PIK3CG (p11 0 gamma) (setting [16]), 49%; on PIP5K1A (setting [17]), 11%.

Take `O=c1c2cnccc2c2nccc3c4cc(O)ccc4n1c32` [MW01-E18, 5-hydroxy-1,11,16-triazapentacyclo[10.7.1.0^2,^7.0^8,^20.0^13,^18]icosa-2(7),3,5,8(20),9,11,13(18),14,16-nonaen-19-one]: the inhibition at 10 µM is 35% on ALK (setting [6]); 65% at DYRK1A (setting [7]); 43% at FRAP1 (mTOR) (setting [8]); 16% at IKBKB (IKK beta) (setting [9]); 2% on IRAK4 (setting [10]); 30% on PI4K2A (PI4K2 alpha) (setting [11]). Also, the inhibition at 10 µM at PI4K2B (PI4K2 beta) (setting [12]) was 24%; in [1] (setting [13]), 90%; in assay [2] (setting [14]), 94%; in assay [3] (setting [15]), 62%; on PIK3CG (p11 0 gamma) (setting [16]), 99%; at PIP5K1A (setting [17]) it was 28%.
